# BindingDB's records for PubMed 995128 (1976)
# Where “and” joins values, the source holds several entries; their conditions need not be identical. Identical values can stand only once. Counter-ions that a name gives are not always drawn.
# Legend:
# D(2) dopamine receptor = D(2) dopamine receptor (Bos taurus, UniProt P20288)
# D(1A) dopamine receptor = D(1A) dopamine receptor (Bos taurus, UniProt Q95136)
# Sequence of D(1A) dopamine receptor (Q95136 whole entry): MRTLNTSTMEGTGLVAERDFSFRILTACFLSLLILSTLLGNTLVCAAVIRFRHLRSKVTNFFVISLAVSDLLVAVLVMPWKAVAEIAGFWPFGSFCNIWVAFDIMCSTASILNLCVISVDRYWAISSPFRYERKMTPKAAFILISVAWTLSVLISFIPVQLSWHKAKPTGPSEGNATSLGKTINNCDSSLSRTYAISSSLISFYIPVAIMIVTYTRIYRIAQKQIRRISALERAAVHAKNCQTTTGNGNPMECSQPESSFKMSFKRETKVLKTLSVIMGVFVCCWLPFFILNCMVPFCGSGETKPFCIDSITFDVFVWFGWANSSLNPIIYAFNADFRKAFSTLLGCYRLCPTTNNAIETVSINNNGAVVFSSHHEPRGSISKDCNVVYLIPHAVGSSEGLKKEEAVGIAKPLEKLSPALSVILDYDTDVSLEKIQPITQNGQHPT
# Sequence of D(2) dopamine receptor (P20288 whole entry): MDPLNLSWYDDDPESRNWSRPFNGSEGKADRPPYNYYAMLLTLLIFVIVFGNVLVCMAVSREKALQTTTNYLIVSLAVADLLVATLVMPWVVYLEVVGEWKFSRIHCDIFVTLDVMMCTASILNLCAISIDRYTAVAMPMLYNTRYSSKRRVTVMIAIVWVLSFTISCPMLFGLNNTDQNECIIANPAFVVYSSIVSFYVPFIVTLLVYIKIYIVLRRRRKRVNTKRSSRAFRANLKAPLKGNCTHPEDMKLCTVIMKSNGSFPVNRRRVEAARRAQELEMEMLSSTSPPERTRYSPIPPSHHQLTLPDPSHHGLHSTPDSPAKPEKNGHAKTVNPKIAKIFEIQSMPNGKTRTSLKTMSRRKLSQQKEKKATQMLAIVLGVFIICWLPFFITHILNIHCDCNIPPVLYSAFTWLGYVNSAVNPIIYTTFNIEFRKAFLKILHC
SMILES,Ki (D(2) dopamine receptor),Ki (D(1A) dopamine receptor)
CN(C)CCCN1c2ccccc2Sc2ccccc21,72 nM,7100 nM
CN(C)CCCN1c2ccccc2CCc2ccccc21,180 nM,> 10000 nM
Cc1ccc(C2(O)CCN(CCCC(=O)c3ccc(F)cc3)CC2)cc1 [NSC_4249],1.9 nM,1200 nM
"NCC(O)c1ccc(O)c(O)c1 (stereo not drawn) [Noradrenaline,(+)]",> 10000 nM and 5600 nM,820 nM and 200 nM
CC[C@@H](CO)NC(=O)[C@@H]1C=C2c3cccc4c3c(cn4C)C[C@H]2N(C)C1,160 nM,290 nM
CC(C)[C@H]1C(=O)N2CCC[C@H]2[C@]2(O)O[C@](NC(=O)[C@@H]3C=C4c5cccc6[nH]cc(c56)C[C@H]4N(C)C3)(C(C)C)C(=O)N12 [ERGOCORNINE],0.7 nM,36 nM
CN1CCN(CCCN2c3ccccc3Sc3ccc(C(F)(F)F)cc32)CC1,2.1 nM,740 nM
CC(C)C[C@H]1C(=O)N2CCCC2[C@]2(O)O[C@](NC(=O)[C@@H]3C=C4c5cccc6[nH]cc(c56)CC4N(C)C3)(C(C)C)C(=O)N12 (stereo partly drawn) [ALPHA-ERGOCRYPTINE],1.3 nM,69 nM
"COc1ccc2c(c1O)-c1c3c(cc4c1[C@H](C2)N(C)CC4)OCO3 [(S)-11-methoxy-7-methyl-6,7,7a,8-tetrahydro-5H-benzo[g][1,3]dioxolo[4',5':4,5]benzo[1,2,3-de]quinolin-12-ol]",930 nM,800 nM
O=C(CCCN1CCN(c2ccccn2)CC1)c1ccc(F)cc1 [1-(4-Fluoro-phenyl)-4-(4-pyridin-2-yl-piperazin-1-yl)-butan-1-one(Azaperone)],10 nM,1700 nM
CC(C)NC(=O)C1C=C2c3cccc4[nH]cc(c34)CC2N(C)C1 (stereo not given) [CAS_60-79-7],–,61 nM
OCCN1CCN(CCC=C2c3ccccc3Sc3ccc(Cl)cc32)CC1 [NSC_12454],88 nM,> 10000 nM
NC(=O)C1(N2CCCCC2)CCN(CCCC(=O)c2ccc(F)cc2)CC1 [CAS_1893-33-0],31 nM,4900 nM
O=C1NCN(c2ccccc2)C12CCN(CCCC(c1ccc(F)cc1)c1ccc(F)cc1)CC2,0.6 nM,1400 nM
NC1CCc2cc(O)c(O)cc2C1 (stereo not given),120 nM,11 nM
OCCN1CCN(CCCN2c3ccccc3Sc3ccc(C(F)(F)F)cc32)CC1 [2-[4-[3-[2-(trifluoromethyl)phenothiazin-10-yl]propyl]piperazin-1-yl]ethanol;hydrochloride],0.88 nM and 0.6 nM and 0.3 nM and 0.8 nM,–
"O=c1[nH]c2ccccc2n1C1CCN(CCCC(c2ccc(F)cc2)c2ccc(F)cc2)CC1 [1-(1-(4,4-bis(4-fluorophenyl)butyl)piperidin-4-yl)-1H-benzo[d]imidazol-2(3H)-one]",0.81 nM and 0.6 nM,5300 nM and 7600 nM and 6800 nM
Cc1ccc(N(CC2=NCCN2)c2cccc(O)c2)cc1 [SMR000059054],2000 nM,> 10000 nM
CCc1c(C)[nH]c2c1C(=O)C(CN1CCOCC1)CC2 (stereo not given) [Moban],68 nM and 65 nM and 85 nM and 90 nM,> 10000 nM
CC(C)=CCN1CC[C@@]2(C)c3cc(O)ccc3C[C@@H]1[C@@H]2C [Talwin],3500 nM,> 10000 nM
CC(C)[C@@]1(NC(=O)[C@@H]2C=C3c4cccc5[nH]cc(c45)C[C@H]3N(C)C2)O[C@@]2(O)[C@@H]3CCCN3C(=O)[C@H](Cc3ccccc3)N2C1=O [SMR000058447],1.4 nM,52 nM
CNCCc1ccc(O)c(O)c1 [CAS_62-32-8],530 nM,23 nM
OCCN1CCN(CC/C=C2/c3ccccc3Sc3ccc(Cl)cc32)CC1 [2-[4-[(3Z)-3-(2-chloro-9-thioxanthenylidene)propyl]-1-piperazinyl]ethanol;hydrochloride],3.1 nM,480 nM
OCCC1CCN(CCC=C2c3ccc(F)cc3Sc3ccc(C(F)(F)F)cc32)CC1 [CAS_60197-32-2],0.9 nM,67 nM

SMILES,Ki (D(2) dopamine receptor),Ki (D(1A) dopamine receptor)
CN(C)CCCN1c2ccccc2Sc2ccc(C(F)(F)F)cc21 [TRIFLUPROMAZINE],2.1 nM,530 nM
"CC(CN1c2ccccc2Sc2ccccc21)N(C)C (stereo not drawn) [N,N,alpha-trimethyl-10H-phenothiazine-10-ethanamine]",240 nM,> 10000 nM
O=C(CCCN1CCC(O)(c2ccc(Cl)cc2)CC1)c1ccc(F)cc1 [4-[4-(4-Chloro-phenyl)-4-hydroxy-piperidin-1-yl]-1-(4-fluoro-phenyl)-butan-1-one;propionate(HCl)],–,920 nM and 1060 nM and 1100 nM
O=C(CCC(F)N1CCC(O)(c2cccc(C(F)(F)F)c2)CC1)c1ccccc1 (stereo not given) [CAS_749-13-3],0.95 nM,740 nM
CCC(=O)C(CC(C)N(C)C)(c1ccccc1)c1ccccc1 (stereo not given) [CAS_5967-73-7],2700 nM,> 10000 nM
CN1CCN2c3ccccc3Cc3ccccc3[C@H]2C1 [MIANSERIN (+)],620 nM,2500 nM
OCCN1CCN(CCCC2c3ccc(F)cc3Sc3ccc(C(F)(F)F)cc32)CC1 (stereo not given) [NSC_68751],2.6 nM,1900 nM
O=C(CCCN1CCC(O)(c2ccc(Cl)c(C(F)(F)F)c2)CC1)c1ccc(F)cc1 [CAS_10457-91-7],0.5 nM,360 nM
CN1C2CCC1CC(OC(c1ccccc1)c1ccccc1)C2 (stereo not given),230 nM,> 10000 nM
CSc1ccc2c(c1)N(CC[C@@H]1CCCCN1C)c1ccccc1S2 [10-[2-(1-Methyl-piperidin-2-yl)-ethyl]-2-methylsulfanyl-10H-phenothiazine (thioridazine)],–,1800 nM and 1780 nM and 1810 nM
CNCC(O)c1ccc(O)c(O)c1 (stereo not given) [EPINEPHRINE],2600 nM and > 10000 nM,280 nM and 1200 nM
CC(C)C[C@H]1C(=O)N2CCC[C@H]2[C@]2(O)O[C@](NC(=O)[C@@H]3C=C4c5cccc6[nH]c(Br)c(c56)C[C@H]4N(C)C3)(C(C)C)C(=O)N12 [Bromocriptine+ (GTP+)],2.5 nM,–
"CSc1ccc2c(c1)C(N1CCN(C)CC1)Cc1ccccc1S2 (stereo not given) [methanesulfonic acid;1-methyl-4-(3-methylsulfanyl-5,6-dihydrobenzo[b][1]benzothiepin-5-yl)piperazine]",1.4 nM,210 nM
"O=C(CCCN1CC=C(n2c(=O)[nH]c3ccccc32)CC1)c1ccc(F)cc1 [1-(1-(4-(4-fluorophenyl)-4-oxobutyl)-1,2,3,6-tetrahydropyridin-4-yl)-1H-benzo[d]imidazol-2(3H)-one]",1 nM,880 nM
"CCN(CC)C(=O)[C@@H]1C=C2c3cccc4[nH]c(Br)c(c34)C[C@H]2N(C)C1 [LSD,2-Bromo]",4 nM,54 nM
"CN1C[C@H](C(=O)N[C@]2(C)O[C@@]3(O)[C@@H]4CCCN4C(=O)[C@H](Cc4ccccc4)N3C2=O)C=C2c3cccc4[nH]cc(c34)C[C@H]21 [12'-hydroxy-2'-methyl-5'alpha-(phenylmethyl)ergotaman-3',6',18-trione]",1.8 nM,30 nM
OC1(c2ccc(Cl)c(C(F)(F)F)c2)CCN(CCCC(c2ccc(F)cc2)c2ccc(F)cc2)CC1 [Penfluridol],5.6 nM,1600 nM
COc1ccccc1N1CCN(CCCC(=O)c2ccc(F)cc2)CC1 [Fluanisone],3.8 nM,800 nM
CN(C)CC/C=C1\c2ccccc2Sc2ccc(Cl)cc21,4.4 nM,250 nM
"CN1CCC(=C2c3ccccc3C=Cc3ccccc32)CC1 [5-(1-methylpiperidylidene-4)-5H-dibenzo(a,d)cyclopheptene]",65 nM,1200 nM
NCCc1ccc(O)c(O)c1,–,17.5 nM and 16.8 nM and 11.7 nM
O=C(CCCN1CCC(n2c(O)nc3ccccc32)CC1)c1ccc(F)cc1 [CAS_2062-84-2],0.33 nM,4100 nM
CC(COc1ccccc1)N(CCCl)Cc1ccccc1 (stereo not given),140 nM,> 10000 nM
O=C(CCCN1CCC(O)(c2ccc(Br)cc2)CC1)c1ccc(F)cc1 [BROMPERIDOL],1.4 nM,600 nM
